# Measurements from ChEMBL document CHEMBL1158678, “Two new mono-tetrahydrofuran ring acetogenins, annomuricin E and muricapentocin, from the leaves of Annona muricata” (J Nat Prod, 1998).
# Assays:
# [1] = Toxicity against Artemia salina; assay type: organism-based; conditions: in vivo, read-out: ED50 (the source's name)
# A549 = experiment: Cytotoxicity against human A549 cells after 7 days by MTT assay; assay type: functional; conditions: A549, 168 h, read-out: ED50 (the source's name)
# MCF7 = experiment: Cytotoxicity against human MCF7 cells after 7 days by MTT assay; assay type: functional; conditions: MCF7, 168 h, read-out: ED50 (the source's name)
# HT-29 = experiment: Cytotoxicity against human HT-29 cells after 7 days by MTT assay; assay type: functional; conditions: HT-29, 168 h, read-out: ED50 (the source's name)
# A498 = experiment: Cytotoxicity against human A498 cells after 7 days by MTT assay; assay type: functional; conditions: A498, 168 h, read-out: ED50 (the source's name)
# PC-3 = experiment: Cytotoxicity against human PC3 cells after 7 days by MTT assay; assay type: functional; conditions: PC-3, 168 h, read-out: ED50 (the source's name)
# MIA PaCa-2 = experiment: Cytotoxicity against human MIAPaCa2 cells after 7 days by MTT assay; assay type: functional; conditions: MIA PaCa-2, 168 h, read-out: ED50 (the source's name)
Structure (SMILES),LC50 [1],EC50 (A549),EC50 (MCF7),EC50 (HT-29),EC50 (A498),EC50 (PC-3),EC50 (MIA PaCa-2)
CCCCCCCCCCCC[C@@H](O)[C@H]1CC[C@H]([C@H](O)CCC[C@@H](O)[C@@H](O)CCCCC[C@@H](O)CC2=C[C@H](C)OC2=O)O1 [ANNOMURICIN E],11.8 µg/mL,0.112 µg/mL,1.45 µg/mL,0.0668 µg/mL,1.41 µg/mL,0.146 µg/mL,0.0242 µg/mL
COc1cccc2c1C(=O)c1c(O)c3c(c(O)c1C2=O)C[C@@](O)(C(=O)CO)C[C@@H]3O[C@H]1C[C@H](N)[C@H](O)[C@H](C)O1 [DOXORUBICIN],,0.00294 µg/mL,0.124 µg/mL,0.0381 µg/mL,0.0158 µg/mL,0.0355 µg/mL,0.00456 µg/mL
CCCCCCCCCCCC[C@@H](O)[C@H]1CC[C@H]([C@H](O)CCC(O)CCCC(O)CCC[C@@H](O)CC2=C[C@H](C)OC2=O)O1 (stereo not given in full) [MURICAPENTOCIN],1.86 µg/mL,0.193 µg/mL,1.9 µg/mL,0.071 µg/mL,1.72 µg/mL,0.45 µg/mL,0.0503 µg/mL
